Source: paper PMC8621570, “Mechanistic Studies of Antibiotic Adjuvants Reducing Kidney’s Bacterial Loads upon Systemic Monotherapy” (Pharmaceutics, 2021)

Experiments:
[1] = system: E. coli 25922; type: cell-based, Escherichia coli; settings: 25922, 24 h
Procedure: Sensitization to plasma components was assessed by mixing bacteria with serial two-fold OAC dilutions in 80% human plasma (Israel Blood Bank) or plasma from the specified species (Technion preclinical research authority or VetSource), as described. Data were obtained from three independent experiments.
Figure 3 Animal plasma antibacterial activities against E. coli 25922. (a) Dose-dependent reduction of colony forming units (CFU) as determined 24 h after exposure to C14(ω5)OOc10O in human plasma (80% final plasma concentration in PBS). Values represent the mean ± SD obtained from three individual plasma donors (mean inoculum was 1.6 ± 0.8 × 10^6 CFU/mL). (b) Time-kill kinetics determined upon E. coli exposure to 0, 2.5, 5, and 10 µM C14(ω5)OOc10O (from top to bottom, respectively). Values represent the mean ± SD obtained from two individual plasma samples, each subjected to two independent assays. Panels (c–f), respectively, show the OAC’s concentration-dependent activities in plasma samples obtained from pig, cat, sheep, and dog. The three dashed horizontal lines respectively represent the average CFU count of the vehicle control (upper line), the inoculum (middle line), and the limit of detection (lower line), i.e., log10 50 CFU/mL = 1.69. Green stars (*) denote lack of detectable CFU.

[2] = system: E. coli 25922; test: Dissipation of the transmembrane potential, DiSC3(5); type: cell-based, Escherichia coli; settings: 10 μM, compared to positive control 50 µM C12K-7α8
Procedure: Inner Membrane Damages: Damage inflicted to the cytoplasmic membrane was assessed using 3,3-dipropylthiadicarbocyanine iodide (DiSC3(5)), a lipophilic potentiometric dye that changes its fluorescence intensity in response to changes in transmembrane potential. Bacteria were grown overnight, diluted and at mid-log were adjusted to O.D = 0.1 (600 nm), centrifuged (10,000 RCF, 5 min), and re-suspended in the assay buffer (5 mM HEPES containing 20 mM glucose, 0.2 mM EDTA, and 50 mM KCl). Then, DiSC3(5) dye was added (to final concentration 4 μM) and incubated at 37 °C for 60 min in the dark to allow dye uptake. An aliquot (180 μL) of the bacterial suspension was placed in a 96-well plate and fluorescence was monitored until baseline stabilization (excitation, 622 nm; emission, 670 nm, monitored using Synergy HT, BioTek Instruments, Winooski, VT, USA). […] Fluorescence was immediately monitored continuously for 30 min. […]
Figure 7 Evidence for proton and ATP leakage across the inner membrane. (a) Dissipation of the transmembrane potential in E. coli 25922 (8.8 ± 1.8 × 10^7 CFU/mL) pre-incubated with DiSC3(5) as determined 15 min after exposure to C14OOc12O (orange) or to C14(ω5)OOc10O (green). […] (b) Intracellular ATP concentrations were determined after 1 h incubation with C14(ω5)OOc10O (green) or C14OOc12O (orange) using E. coli 25922 at 5 × 10^7 CFU/mL. RLU, relative luminescence units.

[3] = Blood circulating concentrations (preliminary PK); type: in vivo, mouse; settings: ICR mice, single S.C 12.5 mg/kg, LC-MS
Procedure: C14(ω5)OOc10O was subjected to preliminary pharmacokinetics (PK) analysis to determine its plasma concentrations or organ bio-distribution following S.C administration to non-neutropenic pathogen-free mice. OAC quantification was performed by LC-MS as follows: blood was drawn at various time intervals and plasma was separated by centrifugation (5000 RCF, 10 min). Organs were excised and homogenized. Then, OAC was extracted from both plasma and organ homogenates by incubation with 50% acetonitrile: 50% methanol at room temperature with shaking for 30 min, and subsequent centrifugation (5000 RCF, 10 min). Supernatants were diluted two-fold in distilled water and analyzed by LC-MS (ULC ultimate 3000 DIONEX, MS BRUKER Maxis impact). Quantification was based on standard calibration curves, prepared by spiking fresh mice plasma (for PK) or water (for organ bio-distribution) with various amounts of the tested OAC (final concentrations from 2.5 to 50 µg/mL) and subjected to an identical procedure as described above.
Figure 10 Systemic efficacy studies using mouse infection models. (a,b) Data points represent colony forming unit (CFU) counts harvested from infected mice (8 and 10 mice per group, respectively). Panel (a) depicts results of the thigh infection model where mice were inoculated intramuscularly with E. coli 25922 (upper dashed line represents the inoculum) and treated subcutaneously with C14(ω5)OOc10O (12.5 mg/kg) at 1 and 3 h post-infection. Panel (b) depicts results of the urinary tract infection model where mice were infected with E. coli UPEC CFT073 by intra-urethral injection and treated subcutaneously with C14(ω5)OOc10O (12.5 mg/kg) at 1 and 6 h post-infection. Solid circles denote mice that died before the experimental endpoint. […] Panels (c,d) show the evolution of C14(ω5)OOc10O concentrations in mouse plasma (c) or in organs (d) after single subcutaneous administration (12.5 mg/kg) to ICR mice (data in c are from two mice/time points except for 60 and 180 that were 8 and 3, respectively) as determined by liquid chromatography–mass spectrometry. […]

In the case of `CCCCC=CCCCCCCCC(=O)N[C@@H](CCCN)C(=O)N[C@@H](CCCN)C(=O)NCCCCCCCCCC(=O)N[C@@H](CCCN)C(N)=O` [C14(ω5)OOc10O], the “MIC, cat plasma” value [1] is reported as at least 20 µM, the “MIC, dog plasma” value [1] is reported as at least 20 µM and the “MIC, human plasma” value [1] is reported as 2.5 to 5 µM. For the same compound, the “Depolarization (dissipation of the transmembrane potential)” value [2] was “only partial depolarization”, the “Time for which potentiating plasma concentrations (>2.5 µM) were maintained after the maximum” value [3] was “at least 3 h” and the Cmax ([3]; mouse, plasma, sc, mean ± SD, read-out: Maximal plasma concentration) was 8.7 ± 2.3 µM. For the same compound, the Tmax ([3]; mouse, plasma, sc, read-out: Time to maximal plasma concentration) was about 1 h.
